The source of these data is patent EP2680005A1, “Lipid analysis” (Rheinische Friedrich-Wilhelms-Universität Bonn, priority 2012, dated 2014).

Each structure is given as a SMILES string. Like-named read-outs stand apart in the source and are kept apart here.

The subject of series [1] is A-172 cells. Briefly: Alkyne-sphinganine labeling of cultivated cells, click analysis. To be noted: cultivated 1 h with the compound. The class given is cell-based. The protocol: (§1) Alkyne lipid precursors are supplemented to cell culture where they become incorporated into cellular lipids, e.g. into phosphatidylcholine (PC). These are extracted and reacted with the fluorogenic dye 3-azido-7-hydroxycoumarin in the presence of copper(I). […] (a) Alkyne-Bodipy at concentrations as indicated was reacted with either 60 µM 3-azido-7-hydroxycoumarin and 2mM Cu(I)BF4 (+) or incubated in ethanol for 3h at 42°C (-). The samples were separated by TLC using hexane/ethyl acetate 1/1 as the mobile phase. […] (c) Plot of the integrated fluorescence intensity of lane 6 of panel b (left) and from the corresponding one second exposure before base treatment. […] The cholesterol ester of alkyne-oleate at the indicated concentrations was subjected to detection reaction, TLC separation and fluorescence imaging using the standard protocol. […] (b) Quantification of integrated fluorescence of panel a. […] Signals were quantified either by scraping, extraction and scintillation counting (panel b, ^3H-oleate) or by integration of signals form the fluorescence image (panel b, alkyne-oleate). […] Lipids extracts were dried and subjected to detection reaction, TLC separation and fluorescence imaging using the standard protocol. […] (b) Quantification of the signals in panel a. […]

In series [2] the test system is HuH7 hepatoma cells. Briefly: Pulse chase labeling with alkyne fatty acids. It is filed as cell-based. The method, then:
Alkyne lipid precursors are supplemented to cell culture where they become incorporated into cellular lipids, e.g. into phosphatidylcholine (PC). These are extracted and reacted with the fluorogenic dye 3-azido-7-hydroxycoumarin in the presence of copper(I). […] (a) Alkyne-Bodipy at concentrations as indicated was reacted with either 60 µM 3-azido-7-hydroxycoumarin and 2mM Cu(I)BF4 (+) or incubated in ethanol for 3h at 42°C (-). The samples were separated by TLC using hexane/ethyl acetate 1/1 as the mobile phase. The dried TLC plate was first imaged with excitation at 485 nm and emission at >520 nm (left panel, Bodipy channel), followed by treatment with 4% Hünig's base in hexane and imaging with excitation at 420 nm and emission at 484-504 nm (right panel, Coumarin channel). (b, c) Influence of dye concentration and base treatment. A172 cells were grown in a 15 cm dish and labeled with 100 µM alkyne-palmitate/alkyne-oleate 1/1 for 2 h. Lipids were extracted and dissolved in 2 ml CHCl3. 2 µl of this extract were reacted with 2 mM Cu(I)BF4 and the indicated concentration of 3-azido-7-hydroxycoumarin in 37 µl ethanol/MeCN/CHCl3 24/6/7 at 42°C for 3 h. Samples were separated by TLC and imaged (b) before (right panel) and after (left panel) treatment with 4%-Hünig's base in hexane for the times indicated. (c) Plot of the integrated fluorescence intensity of lane 6 of panel b (left) and from the corresponding one second exposure before base treatment. […] The cholesterol ester of alkyne-oleate at the indicated concentrations was subjected to detection reaction, TLC separation and fluorescence imaging using the standard protocol. […] (b) Quantification of integrated fluorescence of panel a. […] Signals were quantified either by scraping, extraction and scintillation counting (panel b, ^3H-oleate) or by integration of signals form the fluorescence image (panel b, alkyne-oleate). […] Lipids extracts were dried and subjected to detection reaction, TLC separation and fluorescence imaging using the standard protocol. […] (b) Quantification of the signals in panel a. […]

Series [3] concerns Drosophila melanogaster L3 larvae. Briefly: Alkyne fatty acid labeling of opened single L3 larvae. Particulars: 50 µM, 30 min. The method, then: as §1
In series [4] the test system is Freshly isolated mouse hepatocytes. Briefly: Hepatocyte fatty acid metabolism, time course with alkyne or natural fatty acids. It is filed as cell-based. Particulars: 50 µM fatty acid, all labeling times; fluorescent click analysis. The protocol: as §1
The test system is the same in series [5]. Briefly: Comparison of 3H-oleate and alkyne-oleate labeling (click/TLC fluorescence vs scintillation counting). It is filed as cell-based. The method, then:
as §1

`C#CCCCCCCCCCCCCC[C@@H](O)[C@@H](N)CO` [alkyne-sphinganine, (2S,3R)-2-Aminooctadec-17-yn-1,3-diol]: the “labeling of cellular lipids” value in series [1] is “strong labeling of ceramide and other sphingolipids”.

In the case of `C#CCCCCCCCCCCCCCCC(=O)O` [alkyne-palmitate, 16-Heptadecynoic acid], in series [2] (3 min pulse, 30 min chase), the “fate of label after chase” value is “metabolized to the final products PC, PE, TAG and CE”. In series [2] (3 min pulse, no chase), the “distribution of label after pulse” value is “much of the fatty acids were found as the free substance, or in biosynthetic intermediates such as PA and DAG”. Also, the “incorporation into PE” value in series [3] was “much less”. Also, the “incorporation into TAG compared to PC” value in series [4] was “equal distribution between PC and TAG”.

Consider `C#CCCCCCCC/C=C\CCCCCCCC(=O)O` [alkyne-oleate, Nonadec-9-cis-en-18-ynoic acid], for which the “fate of label after chase” value in series [2] is “metabolized to the final products PC, PE, TAG and CE”. Also, the “incorporation into PE” value in series [3] is reported as “large amounts”. The “amount of label in neutral lipids” value in series [5] was determined as 49%.
